Measured values published in US20250276955A1, “CORONAVIRUS MAIN PROTEASE INHIBITORS AND METHODS USING SAME” (Baylor College of Medicine, priority 2021, published 2025).
Values after ≈ are worked out from the molar mass of the structure shown. Read-outs that look alike come from different tables or passages of the source.

Columns and labels:
[1] = target: SARS-COV-2 M^pro-His6 (Severe acute respiratory syndrome coronavirus 2, UniProt P0DTD1); assay: biochemical; type: biochemical
[2] = target: SARS-COV-2 M^pro (authentic N- and C-termini) (Severe acute respiratory syndrome coronavirus 2, UniProt P0DTD1); assay: biochemical; type: biochemical; details: for M^pro Ki: 25 nM enzyme, 15 μM fluorescent peptide, Morrison equation, Inactive = less than 50% inhibition at 25 μM compound; for Ki,app: Table 5
[3] = target: T1, Human Cathepsin B (Homo sapiens, UniProt P07858); assay: Cathepsin B assay; type: biochemical
T1 construct: purchased BPS Bioscience 79590
Description: A kit from BPS Bioscience (#79590) was used with adjustments to the manufacturer's protocol as follows: The activated enzyme was diluted 250-fold just before use, and the reaction was run at RT in black 96 half-area plates in a total reaction volume of 50 uL containing 0.01% Tween-20. Instead of measuring endpoints at 60 min the increase in fluorescence (Ex 360 nm, Em 460 nm) per second (RFU/s) was obtained from linear progress curves over 10 min. Fractional activities were calculated from reactions with no inhibitors. E-64 was used as a positive control.

[4] = Apparent solubility in PBS buffer; details: for solubility: PBS buffer with 2% DMSO, aqueous buffer, kinetic from dmso stock
[5] = Metabolic stability in mouse liver microsomes; type: in vitro ADME; details: 0.5 mg protein/mL, 2.0 μM compound, 1.0 mM NADPH
Description: (§1) The samples were collected at specific time-points 0, 30, and 60 min in duplicate. The reactions were terminated by adding an equivalent volume of ice-cold methanol and vortexed. […] Three μL of the supernatant was analyzed by UHPLC-Q Exactive Orbitrap MS (Thermo Fisher Scientific, USA) equipped with 50 mm×4.6 mm column (XDB C-18, Agilent Technologies, USA). The column temperature was maintained at 40° C. The flow rate was at 0.3 mL/min with a 30% mobile phase (acetonitrile containing 0.1% formic acid). Q Exactive MS was operated in positive mode with electrospray ionization. Ultra-pure nitrogen was applied as the sheath (45 arbitrary unit), auxiliary (10 arbitrary unit), sweep (1.0 arbitrary unit) and the collision gas. […] MS data were acquired from 80 to 1,200 Da in profile mode.

[6] = Metabolic stability in human liver microsomes; type: in vitro ADME; details: 0.5 mg protein/mL, 2.0 μM compound, 1.0 mM NADPH
Description: as §1

[7] = tested on: SARS-COV-2 (USA_WA1/2020 isolate) in VERO E6 cells; assay: Real-Time Cell Analysis (RTCA) assay of SARS-COV-2 replication; type: cell-based; details: VERO E6 cells, 75 h
[8] = target: T2, human thrombin (Homo sapiens, UniProt P00734); assay: Thrombin fluorescence assay; type: biochemical; details: fluorescence assay
T2 construct: purchased Sigma-Aldrich MAK243

[9] = target: SARS-CoV-2 main protease (M^pro) (Severe acute respiratory syndrome coronavirus 2, UniProt P0DTD1); assay: Protein thermal shift stability assay (SYPRO Orange); type: binding; details: 50 μM compound; […]; 50 µM
[10] = tested on: HOVPro-Gii.4; assay: Thermal shift, HOVPro-Gii.4; type: binding; details: 50 µM
[11] = target: T3, HOVPro-Gi.1 (Norovirus, UniProt Q83883); assay: Thermal shift, HOVPro-Gi.1; type: binding; details: 50 µM
T3 construct: HOVPro-Gi.1
T3 sequence (Q83883 1101-1281): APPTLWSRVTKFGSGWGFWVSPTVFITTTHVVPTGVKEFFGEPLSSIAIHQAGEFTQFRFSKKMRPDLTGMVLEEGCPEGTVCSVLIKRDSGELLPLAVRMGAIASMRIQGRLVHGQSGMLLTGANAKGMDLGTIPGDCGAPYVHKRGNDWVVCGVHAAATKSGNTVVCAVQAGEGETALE

[12] = 25 nM enzyme, 15 μM fluorescent peptide, Morrison equation, Inactive = less than 50% inhibition at 25 μM compound
[13] = Table 3, column a (footnote not given), read-out: Kiapp (nM)^a
[14] = Ki, app towards SARS-CoV-2 M^pro, athentic termini, authentic termini
[15] = Kiapp (nM)^b, Table 3, column b (footnote not given)
[16] = Table 3, column b (footnote not given), read-out: Kiapp (nM)^b
[17] = Table 3, column a (footnote not given)
[18] = Table 3, column b (footnote not given)

For `COc1cc(-c2cccc3[nH]ncc23)cc(CO)c1OCC(=O)N(C)C` [CDD-1776], the “M^pro-His Ki” value [1, 12] was “Inactive”, the “M^pro inhibition (in words)” value [2] was “completely abolished the activity” and the “M^pro Ki” value [2] was “Inactive”. The “Ki,app” value [2] was “Inactive”.
For `CCC[C@H](NC(=O)c1cccc2nc(-c3cncc4ccccc34)n([C@H]3C[C@H](C(=O)NC)C3)c12)c1cccc(C(F)(F)F)c1` [CDD-1795], the Ki [1, 13] was 29.4 ± 4.3 nM, the “Human Cathepsin B, Fractional Remaining Activity” value [3] was 1.07 and the Ki [2, 14] was 35.2 nM. The Ki [2, 15] was 35.2 ± 4.9 nM and the solubility [4] was 50.4 µM (≈ 30.2 µg/mL).
In the case of `O=C1CCOc2ccc(-c3cccc4[nH]ncc34)cc21` [CDD-2037], the “M^pro-His Ki” value [1, 12] is reported as “Inactive” and the “M^pro Ki” value [2] is reported as “Inactive”.
For `CCC[C@H](NC(=O)c1cccc2nc(-c3cncc4ccccc34)n(C3CCNCC3)c12)c1ccc(C(F)(F)F)cc1` [CDD-1818], the Ki [1, 13] was 1470 ± 152 nM and the Ki [2, 16] was 1710 ± 128 nM.
With `CNC(=O)CCCn1c(-c2ccc3cnccc3c2)nc2cccc(C(=O)N[C@@H](C)c3ccc4ccccc4c3)c21` [CDD-1884] the “Kiapp (nM)^a” value [1, 17] was “Inactive” and the “Kiapp (nM)^b” value [2, 18] was “Inactive”.
In the case of `CCC[C@H](NC(=O)c1cccc2nc(-c3cncc4ccccc34)n([C@H]3C[C@H](C(=O)NC)C3)c12)c1ccccc1` [CDD-1843], the “Kiapp (nM)^a” value [1, 17] is reported as “Inactive” and the “Kiapp (nM)^b” value [2, 18] is reported as “Inactive”.
`CNC(=O)[C@H]1C[C@H](n2c(-c3cncc4ccccc34)nc3cccc(C(=O)N[C@@H](C)c4ccccc4)c32)C1` [CDD-1841] showed a Ki [1, 13] of 571 ± 72.7 nM and a Ki [2, 16] of 565 ± 55.3 nM.
`CCC[C@H](NC(=O)c1cccc2nc(-c3cncc4ccccc34)n(CCCC(=O)NC)c12)c1ccc(C(F)(F)F)cc1` [CDD-1830] gave a Ki [1, 13] of 5.6 ± 0.5 nM and a Ki [2, 16] of 6.5 ± 1 nM.
For `CN(C)C(=O)COc1ccc(-c2cccc3[nH]ncc23)cc1C#N` [CDD-2038], the “M^pro-His Ki” value [1, 12] was “Inactive” and the “M^pro Ki” value [2] was “Inactive”.
In the case of `Cc1nnc2n1-c1ccc(Cl)cc1C(c1ccccc1)=NC2` [Alprazolam, reference compound], the “MLM t1/2 (half-life)” value [5] is reported as 296 and the “HLM t1/2 (half-life)” value [6] is reported as 832.
For `CCC[C@H](NC(=O)c1cccc2nc(-c3cncc4ccccc34)n(C(C)C)c12)c1ccc(C(F)(F)F)cc1` [CDD-1804], the “Kiapp (nM)^a” value [1, 17] was “Inactive” and the “Kiapp (nM)^b” value [2, 18] was “Inactive”.
In the case of `COc1cc(-c2cccc3c2cnn3C)cc(C=O)c1OCC(=O)N(C)C` [CDD-1847, 2-(2-formyl-6-methoxy-4-(1-methyl-1H-indazol-4-yl)phenoxy)-N,N-dimethylacetamide], the “M^pro-His Ki” value [1, 12] is reported as “Inactive”, the “M^pro inhibition (in words)” value [2] is reported as “completely lost activity” and the “M^pro Ki” value [2] is reported as “Inactive”. For the same compound, the “prevention of SARS-COV-2 induced cell death (in words)” value [7] was “unable to prevent cell death”.
For `CCC[C@H](NC(=O)c1cccc2nc(-c3cncc4ccccc34)n(C3CCC3)c12)c1ccc(C(F)(F)F)cc1` [CDD-1806], the Ki [1] was 165 ± 12.9 nM, the “Human Cathepsin B, Fractional Remaining Activity” value [3] was 0.94 and the Ki [2, 14] was 137 nM. The Ki [2, 15] was 137 ± 11.6 nM and the solubility [4] was 0.1 µM (≈ 0.0543 µg/mL).
For `CCCC(NC(=O)c1cccc2nc(-c3cncc4ccccc34)n([C@H]3C[C@H](C(=O)NC)C3)c12)c1ccc(C(F)(F)F)cc1` (some centres unmarked) [CDD-1732], the Thrombin inhibition [8] was “None”, the “ΔTm of Mpro at 50 μM compound conc.” value [9] was 0.61 °C and the “ΔTm of HOVPro-Gii.4 at 50 μM compound conc.” value [10] was −1.24 °C. The “ΔTm of HOVPro-Gi.1 at 50 μM compound conc.” value [11] was −0.82 °C and the “Measured apparent solubility in PBS buffer (2% DMSO)” value ([4]; PBS buffer, 2% DMSO) was 26.9 µM.
With `CCOC(=O)/C=C/c1cc(-c2cccc3[nH]ncc23)cc(OC)c1OCC(=O)N(C)C` [CDD-1971] the “M^pro-His Ki” value [1, 12] was “Inactive” and the “M^pro Ki” value [2] was “Inactive”.
Compound `CCC[C@H](NC(=O)c1cccc2nc(-c3cncc4ccccc34)n([C@H]3CC[C@H](C(=O)NC)C3)c12)c1ccc(C(F)(F)F)cc1` [CDD-1790] has a Ki [1, 13] of 621 ± 46 nM, a Ki [2, 14] of 663 nM and a Ki [2, 16] of 663 ± 66 nM. It also gave a solubility [4] of 52.1 µM (≈ 32 µg/mL).
In the case of `CNC(=O)CCCn1c(-c2ccc(N)nc2)nc2cccc(C(=O)N[C@@H](C)c3ccc4ccccc4c3)c21` [CDD-1926], the “Kiapp (nM)^a” value [1, 17] is reported as “Inactive” and the “Kiapp (nM)^b” value [2, 18] is reported as “Inactive”.
Compound `C[C@H](NC(=O)c1cccc2nc(-c3cncc4ccccc34)n(CCCC(=O)O)c12)c1ccc2ccccc2c1` [CDD-1972] has a Ki [2, 16] of 87.9 ± 8.4 nM.
Work on `CNC(=O)CCCn1c(-c2cnccc2C)nc2cccc(C(=O)N[C@@H](C)c3ccc4ccccc4c3)c21` [CDD-1924] yielded a Ki [2, 16] of 426 ± 46.4 nM.
`CCC[C@H](NC(=O)c1cccc2nc(-c3cncc4ccccc34)n(CCCC(=O)NC)c12)c1ccc(C)cc1` [CDD-1934] gave a Ki [2, 16] of 27.4 ± 2.4 nM.
With `COc1cc(-c2cccc3[nH]ncc23)ccc1OCC(=O)N(C)C` [CDD-1793, 2-(4-(1H-indazol-4-yl)-2-methoxyphenoxy)-N,N-dimethylacetamide] the “M^pro-His Ki” value [1, 12] was “Inactive”, the “M^pro inhibition (in words)” value [2] was “completely abolished the activity” and the “M^pro Ki” value [2] was “Inactive”. For the same compound, the “Ki,app” value [2] was “Inactive”.
With `CNC(=O)CCCn1c(-c2ccc3cccnc3n2)nc2cccc(C(=O)N[C@@H](C)c3ccc4ccccc4c3)c21` [CDD-1905] the “Kiapp (nM)^a” value [1, 17] was “Inactive” and the “Kiapp (nM)^b” value [2, 18] was “Inactive”.
`CNC(=O)CCCn1c(-c2cncc3ccccc23)nc2cccc(C(=O)NCc3ccc4ccccc4c3)c21` [CDD-1925] gave a Ki [1, 13] of 51.3 ± 7.5 nM and a Ki [2, 16] of 42.5 nM.
In the case of `CNC(=O)CCCn1c(-c2ccnc3ccccc23)nc2cccc(C(=O)N[C@@H](C)c3ccc4ccccc4c3)c21` [CDD-1906], the “Kiapp (nM)^a” value [1, 17] is reported as “Inactive” and the “Kiapp (nM)^b” value [2, 18] is reported as “Inactive”.
In the case of `COC(=O)c1cc(-c2cccc3[nH]ncc23)cc(OC)c1OCC(=O)N(C)C` [CDD-1982], the “M^pro-His Ki” value [1, 12] is reported as “Inactive” and the “M^pro Ki” value [2] is reported as “Inactive”.
In the case of `CNC(=O)[C@H]1C[C@H](n2c(-c3cncc4ccccc34)nc3cccc(C(=O)NC(C)C)c32)C1` [CDD-1842], the “Kiapp (nM)^a” value [1] is reported as “Inactive” and the “Kiapp (nM)^b” value [2] is reported as “Inactive”.
For `CNC(=O)CCCn1c(-c2cccc3ccccc23)nc2cccc(C(=O)N[C@@H](C)c3ccc4ccccc4c3)c21` [CDD-1885], the “Kiapp (nM)^a” value [1, 17] was “Inactive” and the “Kiapp (nM)^b” value [2, 18] was “Inactive”.
For `CCC[C@H](NC(=O)c1cccc2nc(-c3cccnc3)n([C@H]3C[C@H](C(=O)NC)C3)c12)c1ccc(C(F)(F)F)cc1` [CDD-1831], the “Kiapp (nM)^a” value [1] was “Inactive” and the “Kiapp (nM)^b” value [2] was “Inactive”.
In the case of `COc1cc(-c2cccc3[nH]ncc23)cc(C(C)=O)c1OCC(=O)N(C)C` [CDD-1883], the “M^pro-His Ki” value [1, 12] is reported as “Inactive” and the “M^pro Ki” value [2] is reported as “Inactive”.
`CNC(=O)[C@H]1C[C@H](n2c(-c3cncc4ccccc34)nc3cccc(C(=O)NC(C)c4ccc(C(F)(F)F)cc4)c32)C1` (some centres unmarked) [CDD-1829] showed a Ki [1, 13] of 45.7 ± 3.7 nM and a Ki [2, 16] of 47.9 ± 4.7 nM.
For `COc1cc(-c2cccc3[nH]ncc23)cc(C(=O)CO)c1OCC(=O)N(C)C` [CDD-1886], the Ki ([1]; 25 nM enzyme, 15 μM fluorescent peptide, Morrison equation, Inactive = less than 50% inhibition at 25 μM compound, read-out: M^pro-His Ki) was 15700 ± 1200 nM, the “decrease of M^pro inhibition relative to CDD-1713” value [2] was “greater than 100 fold” and the Ki ([2]; read-out: M^pro Ki) was 21200 ± 1500 nM.
